Converted amounts (≈) assume the structure as drawn. Like-named read-outs stand apart in the source and are kept apart here.
How the values were obtained:
[1] = tested on: herpes simplex virus type 2 (HSV-2, MS); experiment: Inhibition of virus replication, virus yield by plaque method; assay type: cell-based; details: for HSV-2 virus yield: Vero cells
[2] = Drug toxicity in non-infected female mice treated intravaginally; assay type: in vivo; details: compared with saline
Procedure: Where indicated, non-infected mice (5 per group) were treated identically (3 times daily x 5) in order to determine drug toxicity. The groups of mice were weighed at the indicated times.
Non-infected female mice were treated intravaginally with the same drugs, at the same concentrations and with a schedule (3 x daily x 5 days). Animal weights were determined at the time of initiation of treatment (day 0), and again on day 4 (after 12 treatments were given), and again after treatments had been concluded on days 7, 11 and 15. The weights of the groups of mice treated with placebo or the high drug concentrations are shown on Table 3, and the differences in weights in Figure 4. […] Weight gains in mice treated with phyllanthoside (1 mg/ml) were slightly less than that of the above compounds, but by day 15, the mice had the same gain as those treated with phyllanthostatin I, saline or zinc acetate.

[3] = tested on: Herpes Simplex virus type 2 (HSV-2, strain 35D); experiment: Genital HSV-2 infection of female mice, intravaginal treatment, survival; assay type: in vivo; details: for mice survived (of 14): study of Table 3; for %S (percent survivors) / MDD (mean day of death): N 14; for deaths: zinc acetate (0.1M)
PR-8 = details: 50 pg of test compound (so in the source)
E.R. = details: 50 pg of test compound (so in the source)
HSV-1 = experiment: Cell culture antiviral activity, agar-well zones of cytotoxicity / plaque inhibition; details: 50 pg of test compound (so in the source)
[4] = Cytotoxicity of drugs, absorbance at 260 nm of lysed cell monolayers; details: monkey, vero cells, drug concentration which reduces the OD260 of lysed cells by 50%
Vero cells = experiment: as above
HSV-2 = experiment: Cell culture antiviral activity, agar-well zones of cytotoxicity / plaque inhibition; details: 50 pg of test compound (so in the source)
[5] = tested on: herpes simplex virus type 1 (HSV-1, McIntyre); experiment: Inhibition of virus replication, virus yield by plaque method; assay type: cell-based
Vacc. = details: 50 pg of test compound (so in the source)
[6] = tested on: Herpes Simplex virus type 2 (HSV-2, strain 35D); experiment: Genital HSV-2 infection of female mice, virus titers in vaginal secretions; assay type: in vivo; details: for Mean virus titer in swabs of mice which shed virus / Nv/Nt, swabs with virus/total swabs: 8.0 x 10^4 PFU;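 for Mean virus titer in swabs of mice which shed virus: titer expressed as log PFU per ml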
HA-1 = experiment: Cell culture antiviral activity, agar-well zones of cytotoxicity / plaque inhibition; details: 50 pg of test compound (so in the source)
coxsackie A21 = assay type: cell-based; details: ML cells
Coe = experiment: Cell culture antiviral activity, agar-well zones of cytotoxicity / plaque inhibition; details: 50 pg of test compound (so in the source)
[7] = tested on: VSV (vesicular stomatitis virus); assay type: cell-based; details: Vero cells; higher drug concentrations (5 and 50 µg/ml) compared with 0.5
[8] = tested on: coxsackie B3 virus (Nancy Strain); experiment: Inhibition of virus replication, virus yield in Vero cells; assay type: cell-based
[9] = higher drug concentrations (5 and 50 µg/ml) compared with 0.5
[10] = therapeutic index with ID50 Vero 72 hrs.
[11] = therapeutic index with ID50 Vero 91 hrs.
[12] = 8.0 x 10^3 PFU/0.1 ml, mg/ml cell empty (1 mg/ml in upper section)
[13] = 8.0 x 10^4 PFU/0.1 ml, 1 mg/ml intravaginally
[14] = day 1 after HSV-2 inoc., 0.5 mg/ml
[15] = day 1 after HSV-2 inoc., 1 mg/ml
[16] = day 2 after HSV-2 inoc., 0.5 mg/ml
[17] = day 2 after HSV-2 inoc., 1 mg/ml
[18] = day 3 after HSV-2 inoc., 0.5 mg/ml
[19] = day 3 after HSV-2 inoc., 1 mg/ml
[20] = day 4 after HSV-2 inoc., 0.5 mg/ml
[21] = day 4 after HSV-2 inoc., 1 mg/ml
[22] = day 7 after HSV-2 inoc., 0.5 mg/ml
[23] = day 7 after HSV-2 inoc., 1 mg/ml
[24] = 8.0 x 10^3 PFU/0.1 ml, mg/ml cell empty (44 mg/ml in upper section)
[25] = 8.0 x 10^4 PFU/0.1 ml, 44 mg/ml intravaginally

## CC(=O)O[C@@H]1[C@@H](O)[C@H](O[C@H]2[C@H](OC(=O)[C@H]3CC[C@@H]4[C@H](C3)O[C@@]3(C[C@H](OC(=O)/C=C/c5ccccc5)[C@H](C)CO3)[C@]43CO3)O[C@H](C)[C@@H](O)[C@@H]2OC(C)=O)O[C@H](C)[C@H]1O [Phyllanthoside]
[1]; HSV-2 in Vero cells, drug concentration reducing virus titers by 90%, 1440 min
  ED90 MS: 1.4958 µg per ml
[1]; Human alphaherpesvirus 2, Vero, 24 h, read-out: ED90 MS
  EC90: 1.5 µg/mL (≈ 1.86 µM)
[1]; 0.5 µg/ml
  HSV-2 virus yield: most susceptible virus to inhibition
[1]; [9]
  HSV-2 virus yield: further reductions in all virus yields
[1]; [10]
  T - ID50/ED90, MS: 0.7989
[1]; [11]
  T - ID50/ED90, MS: 2.3854
[2]; 1 mg/ml intravaginally 3 x daily x 5 days, zinc acetate groups, same gain by day 15
  weight gains: slightly less
[3]; 8.0 x 10^3 PFU in 0.1 ml
  mice survived (of 14): 13
[3]; [12]
  %S (percent survivors): 93%
  MDD (mean day of death): 14.0 days
[3]; 8.0 x 10^4 PFU in 0.1 ml
  mice survived (of 14): 9
[3]; [13]
  %S (percent survivors): 64%
  MDD (mean day of death): 9.0 days
[3]; intravaginally from one hour after inoculation, 3 times daily
  protection of mice from lethal genital HSV-2 infection, summary in words: most effective of the compounds
[3]; second study, 8.0 x 10^4 PFU in 0.1 ml, 0.5 mg/ml
  mice survived: 1
[3]; second study, 8.0 x 10^4 PFU in 0.1 ml, 1 mg/ml
  mice protected from death (of 10): 7
PR-8; first figure of the cell
  zone of cytotoxicity: 3/3
PR-8; second figure of the cell
  zone of antiviral activity (viral plaque inhibition): 3/3
E.R.; first figure of the cell
  zone of cytotoxicity: 2 (2 - 20-30 mm)
E.R.; second figure of the cell
  zone of antiviral activity (viral plaque inhibition): 4
HSV-1; first figure of the cell
  zone of cytotoxicity: 4/4
HSV-1; second figure of the cell
  zone of antiviral activity (viral plaque inhibition): 4/4
[4]; ID50 Vero 72 hrs., 72 hours
  CC50 at 72 h: 1200 µg/mL (≈ 1480 µM)
[4]; ID50 Vero 91 hrs., table head 91 hrs., b38 96 hours
  CC50 at 91 h: 3.57 µg/mL (≈ 4.44 µM)
Vero cells; Vero cells, 0.5 µg per ml, greatly increased OD260 after 72 hours
  OD260 of lysed cells: decreased the OD260 during 72 hours
Vero cells; Vero cells, 1 µg per ml, OD260 increased dramatically at 96 hours
  cell growth (OD260 of lysed cells): cell growth was suppressed to a greater extent during the first 72 hours
Vero cells; drug concentration which reduces the OD260 of lysed cells by 50%, table head 91 hrs., b38 96 hours, 5460 min
  ID50 Vero 91 hrs.: 3.568 ug per ml
HSV-2; first figure of the cell
  zone of cytotoxicity: 3
HSV-2; second figure of the cell
  zone of antiviral activity (viral plaque inhibition): 4
[5]; Vero cells, higher drug concentrations (5 and 50 µg/ml) compared with 0.5
  HSV-1 virus yield: further reductions in all virus yields
[5]; [10]
  T - ID50/ED90, McIntyre: 0.6402
[5]; [11]
  T - ID50/ED90, McIntyre: 1.9115
Vacc.; first figure of the cell
  zone of cytotoxicity: 4/4
Vacc.; second figure of the cell
  zone of antiviral activity (viral plaque inhibition): 4/4
[6]; 0.5 mg/ml, after the first 3 days
  mean titer less than placebo treated groups: about 0.6 logs
[6]; 0.5 mg/ml, first 3 days
  mean titer less than placebo treated groups: about 1 log
[6]; 1 mg/ml, day 4
  mean titer less than saline or DMSO-saline treated groups: about 0.6 logs
[6]; 1 mg/ml, days 1, 2 and 3
  mean titer less than saline or DMSO-saline treated groups: about one
[6]; [14]
  Mean virus titer in swabs of mice which shed virus: 2.46 log PFU/ml
  Nv/Nt, swabs with virus/total swabs: 5/10
[6]; day 1 after HSV-2 inoc., 0.5 mg/ml, listed as phyllanthoside
  Nv/Nt, swabs with virus/total swabs: 5
[6]; [15]
  Mean virus titer in swabs of mice which shed virus: 2.83 log PFU/ml
  Nv/Nt, swabs with virus/total swabs: 2/10
[6]; day 1 after HSV-2 inoc., 1 mg/ml, listed as phyllanthoside
  Nv/Nt, swabs with virus/total swabs: 2
[6]; [16]
  Mean virus titer in swabs of mice which shed virus: 3.45 log PFU/ml
  Nv/Nt, swabs with virus/total swabs: 7/10
[6]; [17]
  Mean virus titer in swabs of mice which shed virus: 2.98 log PFU/ml
  Nv/Nt, swabs with virus/total swabs: 3/10
[6]; day 2 after HSV-2 inoc., 1 mg/ml, listed as phyllanthoside
  Nv/Nt, swabs with virus/total swabs: 3
[6]; [18]
  Mean virus titer in swabs of mice which shed virus: 3.41 log PFU/ml
  Nv/Nt, swabs with virus/total swabs: 8/10
[6]; [19]
  Mean virus titer in swabs of mice which shed virus: 3.11 log PFU/ml
  Nv/Nt, swabs with virus/total swabs: 5/10
[6]; day 3 after HSV-2 inoc., 1 mg/ml, listed as phyllanthoside
  Nv/Nt, swabs with virus/total swabs: 5
[6]; [20]
  Mean virus titer in swabs of mice which shed virus: 3.73 log PFU/ml
  Nv/Nt, swabs with virus/total swabs: 8/10
[6]; [21]
  Mean virus titer in swabs of mice which shed virus: 3.72 log PFU/ml
  Nv/Nt, swabs with virus/total swabs: 4/10
[6]; day 4 after HSV-2 inoc., 1 mg/ml, listed as phyllanthoside
  Nv/Nt, swabs with virus/total swabs: 4
[6]; [22]
  Mean virus titer in swabs of mice which shed virus: 3.98 log PFU/ml
  Nv/Nt, swabs with virus/total swabs: 2/4
[6]; [23]
  Mean virus titer in swabs of mice which shed virus: 2.94 log PFU/ml
  Nv/Nt, swabs with virus/total swabs: 3/8
HA-1; first figure of the cell
  zone of cytotoxicity: 4
HA-1; second figure of the cell
  zone of antiviral activity (viral plaque inhibition): 0
Coxsackie A21; 5 µg/ml (below 5 µg per ml)
  coxsackie A21 virus yield: inhibitory for both viruses
Coxsackie A21; below 5 µg per ml (i.e., 0.5 or 1), study of b36
  coxsackie A21 virus yield: reduced titers of coxsackie A21
Coxsackie A21; [9]
  coxsackie A21 virus yield: further reductions in all virus yields
Coe; first figure of the cell
  zone of cytotoxicity: 3
Coe; second figure of the cell
  zone of antiviral activity (viral plaque inhibition): 0
[7]
  VSV virus yield: further reductions in all virus yields
[8]; 5 µg per ml
  coxsackie B3 virus yield: inhibitory for both viruses
[8]; below 5 µg per ml (i.e., 0.5 or 1)
  coxsackie B3 virus yield: unaffected

## zinc acetate [Zn(OAc)2, reference compound]
[2]; zinc acetate intravaginally 3 x daily x 5 days
  weight changes: essentially the same
[3]; [24]
  %S (percent survivors): 79%
  MDD (mean day of death): 3.0 days
[3]; 8.0 x 10^3 PFU, two of the three deaths on day 4, probably not virus related
  deaths: 21.4%
[3]; [25]
  %S (percent survivors): 71%
  MDD (mean day of death): 8.3 days
[3]; 8.0 x 10^4 PFU
  deaths: 50%
[3]; second study, 8.0 x 10^4 PFU in 0.1 ml, positive control, concentration not given, 10 mice
  mice protected from lethal infection: 80%
[6]; day 1 after HSV-2 inoc., Zn(OAc)2 concentration not given, value in brackets
  Mean virus titer in swabs of mice which shed virus: (2.60) log PFU/ml
[6]; day 1 after HSV-2 inoc., Zn(OAc)2 concentration not printed
  Nv/Nt, swabs with virus/total swabs: 1/10
[6]; day 1 after HSV-2 inoc., Zn(OAc)2 concentration not printed, listed as zinc acetate
  Nv/Nt, swabs with virus/total swabs: One of 10
[6]; day 2 after HSV-2 inoc., Zn(OAc)2 concentration not given
  Nv/Nt, swabs with virus/total swabs: 1/10
[6]; day 2 after HSV-2 inoc., Zn(OAc)2 concentration not given, value in brackets
  Mean virus titer in swabs of mice which shed virus: (3.54) log PFU/ml
[6]; day 3 after HSV-2 inoc., Zn(OAc)2 concentration not given
  Nv/Nt, swabs with virus/total swabs: 1/10
[6]; day 3 after HSV-2 inoc., Zn(OAc)2 concentration not given, value in brackets
  Mean virus titer in swabs of mice which shed virus: (3.42) log PFU/ml
[6]; day 4 after HSV-2 inoc., Zn(OAc)2 concentration not given
  Nv/Nt, swabs with virus/total swabs: 1/9
[6]; day 4 after HSV-2 inoc., Zn(OAc)2 concentration not given, value in brackets
  Mean virus titer in swabs of mice which shed virus: (4.54) log PFU/ml
[6]; day 7 after HSV-2 inoc., Zn(OAc)2 concentration not given
  Nv/Nt, swabs with virus/total swabs: 0/8

Reference: patent EP0173480A2, “The antiviral use of phyllanthostatins” (priority 1984, dated 1986)
